Test results from paper PMC3510080, “Identification of Compounds with Anti-Proliferative Activity against Trypanosoma brucei brucei Strain 427 by a Whole Cell Viability Based HTS Campaign” (PLoS Neglected Tropical Diseases, 2012).
Values joined by “and” are separate entries in the source; they are usually repeats but may differ in a detail not shown here. Equal entries are not always repeated. Where two headings read alike, the source gives them in different places.

Tests used:
[1] = system: P. falciparum K1 strain; test: P. falciparum 3H-hypoxanthine incorporation assay; SI versus L6 cells; format: cell-based, Plasmodium falciparum; settings: for IC50: Plasmodium falciparum, K1, L6, read-out: Compound activity P.F (IC50); for Selectivity Index P.F: relative to L6 cells
Method: L6 rat skeletal myoblasts, [29] were purchased from the American Type Culture Collection (ATCC, Rockville, MD, USA; ATCC number CRL 1458). This cell line was used for cytotoxicity testing to calculate an SI against T.b. rhodesiense and screened alongside the T.b. rhodesiense, P. falciparum, T. cruzi and L. donovani assays. L6 were also the host cells for the T. cruzi assay. Assays were performed in 96-well microtiter plates, each well containing 100 µl of RPMI 1640 medium supplemented with 1% L-glutamine (200 mM), 10% FCS, and 4000 L6 cells. Serial drug dilutions of eleven 3-fold dilution steps covering a range from 100 to 0.002 µg/ml were prepared. After 70 hours of incubation the plates were inspected under an inverted microscope to assure growth of the controls and sterile conditions. Ten µl of resazurin solution (resazurin, 12.5 mg in 100 ml double-distilled water) was then added to each well and the plates incubated for another 2 hours. Then the plates were read with a Spectramax Gemini XS microplate fluorometer (Molecular Devices Cooperation, Sunnyvale, CA, USA) using an excitation wavelength of 536 nm and an emission wavelength of 588 nm. Data was analysed using the microplate reader software Softmax Pro (Molecular Devices, USA). Podophyllotoxin was used as a positive control in the assay.
Compounds dissolved in DMSO at 10 mg/ml were added to parasite cultures incubated in RPMI 1640 medium without hypoxanthine, supplemented with HEPES (5.94 g/l), NaHCO3 (2.1 g/l), neomycin (100 U/ml), Albumax (5 g/l) and washed human A^+ red blood cells at 2.5% haematocrit (0.3% parasitaemia). Serial drug dilutions of eleven 3-fold dilution steps covering a range from 100 to 0.002 µg/ml were prepared. The 96-well plates were incubated in a humidified atmosphere at 37°C; 4% CO2, 3% O2, 93% N2. After 48 hours, 50 µl of ^3H-hypoxanthine ( = 0.5 µCi) was added to each well of the plate. The plates were incubated for a further 24 hours under the same conditions. The plates were then harvested with a Betaplate cell harvester (Wallac, Zurich, Switzerland), and the red blood cells transferred onto a glass fibre filter then washed with distilled water. The dried filters were inserted into a plastic foil with 10 ml of scintillation fluid, and counted in a Betaplate liquid scintillation counter (Wallac, Zurich, Switzerland). IC50 values were calculated from sigmoidal inhibition curves using Microsoft Excel.

[2] = system: T.b. brucei bloodstream form lister 427; test: T.b. brucei Alamar Blue viability estimation assay (384-well HTS, retest and rescreen); format: cell-based, Trypanosoma brucei brucei; settings: for Estimated Selectivity Index: retest campaign; for Primary Screening Activity 10.2µM (%): single point, inhibition relative to controls
Method: T.b. brucei lister 427 cells were maintained in log phase growth in 25 cm^2 tissue culture flasks (Corning, NY, USA) by sub-culturing at either 24 or 48 hour intervals. Cells were grown in HMI-9 medium, supplemented with 10% fetal calf serum (FCS) and 100 IU/ml penicillin/streptomycin (Invitrogen, Carlsbad, California, USA) with incubation at 5% CO2 at 37°C in humidified conditions. HEK293 cells were maintained in high glucose DMEM with L-glutamine, supplemented with 1× non-essential amino acids (NEAA; Invitrogen, USA) and 1 mM sodium pyruvate. Growth conditions were in 5% CO2 at 37°C, under humidified conditions.
All reagent and cell additions were made with a Multidrop liquid handler (Thermo Scientific, Newington, NH, USA) under sterile conditions. Fifty-five microliters of 2000 cells/mL of T.b. brucei in HMI-9 medium were added to a black, clear-bottomed 384-well lidded plate (BD Biosciences, Franklin Lanes, NJ, USA). Cells were incubated for 24 hours at 37°C in an atmosphere of 5% CO2 before addition of 5 µl of compounds/DMSO for control wells. Compounds suspended in 100% DMSO or 100% DMSO as controls were pre-diluted 1∶21 in high glucose DMEM without FCS by using a Minitrack robotic liquid handler (PerkinElmer, Waltham, MA, USA). Five microliters of diluted sample was added to the plate to give a final DMSO concentration of 0.417% in the assay. Cells were incubated for an additional 48 hours at 37°C. Ten microliters of 70% Alamar Blue (Biosource, Bethesda, MD, USA) was added to each well (diluted in HMI-9 medium supplemented with 10% FCS) to a final concentration of 10% in the assay. The plate was incubated for two hours under the same conditions, then incubated for 22 hours in the dark at room temperature. Wells were read at 535 nm (excitation) and 590 nm (emission) wavelengths on a Victor II Wallac plate reader (PerkinElmer, USA). Specific dilutions are explained further in the primary and retest assay methodology. Reference drugs used in the assay were pentamidine (Sigma-Aldrich, St Louis, MO, USA), diminazene aceturate (Sigma-Aldrich, USA) and puromycin (Calbiochem, San Deigo, CA, USA). Pentamidine is used to treat patients with HAT and diminazene is a veterinary drug used against T.b. brucei to combat infections in cattle.
Primary screening of the library, consisting of 87,296 compounds in two hundred and forty eight 384-well plates, was undertaken in single point against T.b. brucei. Stock solutions consisted of test compound at a concentration of 5 mM in 100% DMSO. One µl of each compound stock solution was diluted by the addition of 40 µl of dilution medium (high glucose DMEM without FCS) by a multidrop liquid handler (Thermo Scientific, USA). A 5 µl sample of this diluted solution was then added to the trypanosome assay plate. The final concentration of test compound in the assay was […] and that of DMSO was 0.42% v/v. Compounds were screened over a total of 11 days, at an average of 80 plates per day, taking into consideration that the assay incubation was 3 days total. Test compounds were added to plates in batches of 20 at two hour intervals, to maintain the timing of additions and reads.
Compound activity was calculated as the percentage inhibition in relation to positive and negative controls. […] These in-plate negative controls were used in an effort to normalise compound activity in relation to any plate to plate variation in the assay signal. A whole 384-well control plate was included in each day's screening, one per 20 compound plates containing half a plate of 2 µM pentamidine for the positive assay control, and half a plate of 0.42% v/v DMSO as a negative control. The positive assay control was used to calculate compound activity for batches of 20 compound plates. As well providing the positive control data, these whole plate controls were used for the calculation of the Z' to measure the reproducibility of the assay.

[3] = HEK293 IC50 / T.b. brucei IC50, > if less than 50% activity at 75.8 µM in HEK293
[4] = Trypanosoma brucei, Alamar Blue-based HTS assay format, run with time to kill study, read-out: Activity (IC50 value) AB assay
[5] = Trypanosoma brucei, re-synthesised/re-purchased compounds, three experiments, two replicates each, read-out: Compound activity T.B (IC50)
[6] = Trypanosoma brucei, retest campaign from stock solutions, duplicate, read-out: Retest IC50 T.b.brucei
[7] = re-synthesised/re-purchased compounds, three experiments, two replicates each, read-out: Compound activity T.B (IC50)
[8] = Trypanosoma brucei, read-out: Activity (IC50 value) AB assay, Alamar Blue-based HTS assay format, run with time to kill study
[9] = Trypanosoma brucei, read-out: Compound activity T.B (IC50), re-synthesised/re-purchased compounds, three experiments, two replicates each
[10] = Trypanosoma brucei, 13 control plates, triplicate dose-response, read-out: IC50 of reference compounds, primary screening campaign
[11] = Trypanosoma brucei, reference compounds, read-out: IC50 against T.b. brucei, retest screening campaign

Structure (SMILES) | IC50 [1] [nM] | Selectivity Index P.F [1] | Selectivity Index T.B [2, 3] | IC50 [2, 4] [nM] | IC50 [2, 5] [nM] | IC50 [2, 6] [nM] | IC50 [2, 7] [nM] | Estimated Selectivity Index ([2]; HEK293 IC50 / T.b. brucei IC50) | Primary Screening Activity 10.2µM (%) [2] [%] | IC50 [2, 8] [nM] | IC50 [2, 9] [nM] | IC50 ([2]; Trypanosoma brucei, read-out: Retest IC50 T.b.brucei, retest campaign from stock solutions, duplicate) [nM] | Selectivity Index T.B [2] | IC50 [2, 10] [nM] | IC50 ([2]; Trypanosoma brucei, during rescreening of resynthesized compounds, read-out: Reference Compound Activity T.B (IC50)) [nM] | IC50 [2, 11] [nM] | IC50 ([2]; 13 control plates, triplicate dose-response, read-out: IC50 of reference compounds, primary screening campaign) [nM] | IC50 ([2]; Trypanosoma brucei, read-out: Reference Compound Activity T.B (IC50), during rescreening of resynthesized compounds) [nM]
CC(C)(C)C(=O)NCCc1csc(-c2cccc(F)c2)n1 [Compound 1] | 35400 ± 2750 | 1.76 | >96.0 | 1100 ± 65.1 | 790 | 441 | 785 ± 82.9 | 94.6 | 100 | – | – | – | – | – | – | – | – | –
O=C(NCCc1n[nH]c(-c2ccc(F)cc2)n1)c1cccc(F)c1 [Compound 2] | 23900 ± 8480 | 5.00 | – | – | 4000 ± 55.5 | 1930 | – | 21.6 | 99.5 | 4710 ± 272 | – | – | – | – | – | – | – | –
CCOc1ccc(OCc2ccc(C(=O)N3CCCC(C)C3)cc2)cc1 (stereo not drawn) [Compound 3] | 14300 ± 6640 | 3.48 | >67.1 | – | 1100 | 2560 | 1130 ± 347 | 16.3 | 99 | – | – | – | – | – | – | – | – | –
Cc1cc(O)nc(-n2nc(C)cc2NC(=O)C2CCCC2)n1 [Compound 4] | 8170 ± 4000 | 0.110 | 25 and 24.6 | – | – | – | 3080 ± 290 | – | – | – | 3100 | – | – | – | – | – | – | –
CCS(=O)(=O)N1CCCc2ccc(NS(=O)(=O)c3ccccc3F)cc21 [Compound 5] | 12600 ± 5870 | 1.72 | >35.9 | – | – | – | 2110 ± 130 | – | – | – | 2100 | – | – | – | – | – | – | –
CCC(C)NC(=O)c1nc(-c2ccccc2)cnc1N (stereo not drawn) [Compound 6] | 11300 ± 4790 | 1.58 | >65.3 | – | 1200 | – | 1160 ± 304 | – | – | 160 ± 40.3 | – | – | – | – | – | – | – | –
O=C(Nc1ccc(Cl)c(-c2nc3ncccc3o2)c1)c1ccco1 [Compound 7] | 7760 ± 3220 | – | – | 198 ± 1.28 | – | – | 218 ± 7.14 | – | 100 | – | 220 | 169 | – | – | – | – | – | –
CCc1ccccc1N=C(NCCN1CCOCC1)NC(=O)c1ccccc1 [Compound 8] | 5330 ± 2040 | 24.8 | >29.0 | – | 2600 | – | 2610 ± 320 | – | – | – | – | – | – | – | – | – | – | –
N=C(N)c1ccc(OCCCCCOc2ccc(C(=N)N)cc2)cc1 [Pentamidine, pentamidine, reference compound] | – | – | – | 5.81 ± 0.707 | – | – | – | – | – | – | – | – | >283 | 14.7 ± 4.7 | 3.52 ± 0.36 | 7.8 ± 3.6 | – | –
COc1ccc(C[C@H](N)C(=O)N[C@H]2[C@@H](O)[C@H](n3cnc4c(N(C)C)ncnc43)O[C@@H]2CO)cc1 [Puromycin, puromycin, reference compound] | – | – | – | 64.1 ± 0.24 | – | – | – | less than 10 | – | – | – | – | 8.90 | 61.9 ± 6.8 | – | 138 ± 15.7 | 61.9 ± 6.8 | 58.4 ± 0.769
